Measured values: patent US10100077B2, “6-aryl-9-glycosylpurines and use thereof” (UNIVERZITA PALACKEHO V OLOMOUCI, priority 2014, dated 2018)

Tested on: Arabidopsis wild-type plants (Col-0) detached leaves
Test: Differential gene expression study (RNA sequencing) in senescent detached leaves
Description: Comparative gene expression analysis in Arabidopsis model was performed to gain information about the reprogramming of gene transcription when senescent leaves were treated with 6-(3-methoxybenzylamino)-9-β-D-arabinofuranosylpurine (3MeOBAPA).
For isolation of total RNA, Arabidopsis wild-type plants (Col-0) were used, which were either treated with 3MeOBAPA or left untreated. Wild-type plants were grown in soil for 30 days, and then leaves of similar size and chlorophyll content were cut and immediately used for the treatment. At least 20 detached leaves were submerged in 1×MS medium supplemented with 10 μM 3MeOBAPA. Control samples were mock treated with DMSO only. After incubation for 6 h or 48 h in the dark, detached leaves were frozen in liquid nitrogen and used for RNA isolation; 150 mg of liquid nitrogen-ground material was used per isolation. cDNA sequencing libraries were prepared with the Illumina TruSeq Stranded mRNA LT Sample Prep Kit (Illumina, San Diego, Calif.) according to standard Illumina's protocols and sequenced on HiSeq 2500 apparatus (50 bp single-end reads). […] To gain insight into the molecular mechanism of 3MeOBAPA action in Arabidopsis we decided to analyze the gene expression patterns via comparison of mock (DMSO)-treated plants with those obtained after i) short time treatment with 3MeOBAPA (6 h) and ii) long time treatment (48 h). This comparison leads to identification of group of genes with similar kinetic of expression and helps to understand possible mechanism of regulation. For data analysis, we performed ab initio method where sequencing reads were mapped to the reference genome.

COc1cccc(CNc2ncnc3c2ncn3[C@@H]2O[C@H](CO)[C@@H](O)[C@@H]2O)c1 [6-(3-methoxybenzylamino)-9-β-D-arabinofuranosylpurine]
logFC AT1G02790 Polygalacturonase 4 (PGA4) (6 h, 10 μM): 1.67
logFC AT1G05580 Cation/H(+) exchanger 23 (CHX23) (6 h, 10 μM): 1.26
logFC AT1G10585 Basic helix-loop-helix (bHLH) DNA-binding superfamily protein (6 h, 10 μM): 0.38
logFC AT1G15540 2-oxoglutarate and Fe(II)-dependent oxygenase superfamily protein (6 h, 10 μM): 0.57
logFC AT1G19670 Chlorophyllase-1 (CLH1) (6 h, 10 μM): 0.63
logFC AT1G55560 SKU5 similar 14 (SKS14) (6 h, 10 μM): 1.71
logFC AT1G59860 17.6 kDa class I heat shock protein 1 (HSP17.6A) (6 h, 10 μM): 0.48
logFC AT1G59950 NAD(P)-linked oxidoreductase superfamily protein (6 h, 10 μM): 1.08
logFC AT1G75830 Defensin-like protein 1.1 (PDF1.1) (6 h, 10 μM): 1.06
logFC AT1G76640 Calcium-binding EF-hand family protein (CML39) (6 h, 10 μM): 0.78
logFC AT2G02010 Glutamate decarboxylase 4 (GAD4) (6 h, 10 μM): 0.55
logFC AT2G04460 Transposable element gene (6 h, 10 μM): 1.16
logFC AT2G18150 Peroxidase 15 (PER15) (6 h, 10 μM): 0.68
logFC AT2G21900 WRKY transcription factor 59 (WRKY59) (6 h, 10 μM): 0.54
logFC AT2G26010 Defensin-like protein 1.3 (PDF1.3) (6 h, 10 μM): 1.47
logFC AT2G26020 Defensin-like protein 1.2B (PDF1.2B) (6 h, 10 μM): 1.52
logFC AT2G26695 Ran BP2/NZF zinc finger-like superfamily protein (6 h, 10 μM): 0.50
logFC AT2G28210 Alpha carbonic anhydrase 2 (ATACA2) (6 h, 10 μM): 0.85
logFC AT2G37430 Zinc finger protein ZAT11 (6 h, 10 μM): 0.42
logFC AT2G39030 L-ornithine N5-acetyltransferase (NATA1) (6 h, 10 μM): 0.56
logFC AT2G47040 Pectin methylesterase Vanguard1 (VGD1) (6 h, 10 μM): 2.80
logFC AT2G47050 Plant invertase/pectin methylesterase inhibitor superfamily protein (6 h, 10 μM): 2.31
logFC AT3G05610 Pectinesterase/pectinesterase inhibitor 21 (PME21) (6 h, 10 μM): 1.80
logFC AT3G07820 Pectin lyase-like superfamily protein (6 h, 10 μM): 2.22
logFC AT3G09340 Transmembrane amino acid transporter family protein (6 h, 10 μM): 0.55
logFC AT3G11340 UDP-Glycosyltransferase superfamily protein (6 h, 10 μM): 0.51
logFC AT3G13400 SKU5 similar 13 (SKS13) (6 h, 10 μM): 0.82
logFC AT3G28153 Transposable element gene (6 h, 10 μM): 0.92
logFC AT3G28155 ARM repeat superfamily protein (6 h, 10 μM): 0.59
logFC AT3G44830 Putative phospholipid: diacylglycerol acyltransferase 2 (PDAT2) (6 h, 10 μM): 0.38
logFC AT3G62710 Glycosyl hydrolase family protein (6 h, 10 μM): 1.35
logFC AT4G01390 TRAF-like family protein (6 h, 10 μM): 0.79
logFC AT4G21830 Peptide methionine sulfoxide reductase B7 (MSRB7) (6 h, 10 μM): 0.55
logFC AT4G22030 F-box domain, cyclin-like, F-box domain, Skp2-like protein (6 h, 10 μM): 0.41
logFC AT4G22620 SAUR-like auxin-responsive family protein (6 h, 10 μM): 0.46
logFC AT4G24350 Phosphorylase superfamily protein (6 h, 10 μM): 0.64
logFC AT4G26010 Peroxidase 44 (PER44) (6 h, 10 μM): 0.53
logFC AT4G31950 Cytochrome P450 82C3 (CYP82C3) (6 h, 10 μM): 0.37
logFC AT4G35010 Beta-galactosidase 11 (BGAL11) (6 h, 10 μM): 2.03
logFC AT4G37780 Myb domain protein 87 (MYB87) (6 h, 10 μM): 0.41
logFC AT4G39320 Microtubule-associated protein-related (6 h, 10 μM): 0.45
logFC AT5G03610 GDSL esterase/lipase (6 h, 10 μM): 0.42
logFC AT5G12960 Putative glycosyl hydrolase (6 h, 10 μM): 1.33
logFC AT5G44420 Defensin-like protein 1.2A (PDF1.2A) (6 h, 10 μM): 1.58
logFC AT5G44430 Defensin-like protein 1.2C (PDF1.2C) (6 h, 10 μM): 1.75
logFC AT5G45880 Pollen Ole e 1 allergen and extensin family protein (6 h, 10 μM): 1.45
logFC AT5G52670 Copper transport family protein (6 h, 10 μM): 0.57
logFC AT5G61160 Agmatine coumaroyltransferase (ACT) (6 h, 10 μM): 1.13
logFC AT5G62720 Integral membrane HPP family protein (6 h, 10 μM): 0.44
logFC AT5G63270 RPM1-interacting protein 4 (RIN4) family protein (6 h, 10 μM): 0.56
number of downregulated genes (P≤0.05) (6 h, 10 μM, vs mock): 1119 genes
number of upregulated genes (P≤0.05) (6 h, 10 μM, vs mock): 1102 genes
number of genes downregulated in both groups (6 h and 48 h overlap): 724 genes
number of genes upregulated in both groups (6 h and 48 h overlap): 1102 genes
